For 18 compounds, IC50 results are on record in US20230059136A1, “THE COMPOUNDS AND COMPOSITIONS FOR TREATING CONDITIONS ASSOCIATED WITH NLRP ACTIVITY” (Novartis AG, priority 2018, published 2023).

Structures are written as SMILES.

The assay has as its system IL-1β production in PMA-differentiated THP-1 cells. Kind of assay: IL-1β production in PMA-differentiated THP-1 cells stimulated with gramicidin (hTHP-1 assay containing 2% fetal bovine serum). It counts as cell-based, human. To be noted: Table B1; 2% fetal bovine serum; class symbols; read-out: hTHP-1 IC50 (Average IC50 of compounds in hTHP-1 assay). In a few lines:
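THP-1 cells were differentiated with PMA 20 ng/ml for 16-18 h, then plated at 50,000 cells/well in RPMI with 2% FBS. They were preincubated 1 h with compound (100–0.0017 μM final, 0.37% DMSO), then stimulated with gramicidin 5 μM for 2 h. Supernatant IL-1β was measured by HTRF.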
Consider `CC(C)c1cc(-c2ccc3c(c2)OC(F)(F)O3)cc(C(C)C)c1CC(=O)N=S(N)(=O)c1ncc(C(C)(C)O)s1` (single isomer, unassigned) [Example 166, (R) or (S)-N-(amino(5-(2-hydroxypropan-2-yl)thiazol-2-yl)(oxo)-λ^6-sulfaneylidene)-2-(4-(2,2-difluorobenzo[d] [1,3]dioxol-5-yl)-2,6-diisopropylphenyl) acetamide], for which the IC50 (commonly the concentration that inhibits the measured activity by half) lay within 40 to 200 nM.
For `Cc1ccc(-c2cc(C(C)C)c(CC(=O)N=S(N)(=O)c3ncc(C(C)(C)O)s3)c(C(C)C)c2)cc1C` (single isomer, unassigned) [Example 167, (S) or (R)-N-(amino(5-(2-hydroxypropan-2-yl)thiazol-2-yl)(oxo)-λ^6-sulfaneylidene)-2-(3,5-diisopropyl-3′,4′-dimethyl-[1,1′-biphenyl]-4-yl)acetamide] the value was 1000 to 5000 nM; for `Cc1ccc(-c2cc(C(C)C)c(CC(=O)N=S(N)(=O)c3ncc(C(C)(C)O)s3)c(C(C)C)c2)cc1C` (single isomer, unassigned) [Example 168, (R) or (S)-N-(amino(5-(2-hydroxypropan-2-yl)thiazol-2-yl)(oxo)-λ^6-sulfaneylidene)-2-(3,5-diisopropyl-3′,4'-dimethyl-[1,1′-biphenyl]-4-yl)acetamide], 200 to 1000 nM; for `CC(C)c1cc(-c2ccc(Cl)c(Cl)c2)cc(C(C)C)c1CC(=O)N=S(N)(=O)c1ncc(C(C)(C)O)s1` (single isomer, unassigned) [Example 169, (S) or (R)-N-(amino(5-(2-hydroxypropan-2-yl)thiazol-2-yl)(oxo)-λ^6-sulfaneylidene)-2-(3′,4′-dichloro-3,5-diisopropyl-[1,1′-biphenyl]-4-yl)acetamide], 1000 to 5000 nM.
In the case of `CC(C)c1cc(-c2ccc(Cl)c(Cl)c2)cc(C(C)C)c1CC(=O)N=S(N)(=O)c1ncc(C(C)(C)O)s1` (single isomer, unassigned) [Example 170, (R) or (S)-N-(amino(5-(2-hydroxypropan-2-yl)thiazol-2-yl)(oxo)-λ^6-sulfaneylidene)-2-(3′,4′-dichloro-3,5-diisopropyl-[1,1′-biphenyl]-4-yl)acetamide] it was 200 to 1000 nM; in that of `CC(C)c1cc(-c2ccc3c(c2)COCC3)cc(C(C)C)c1CC(=O)N=S(N)(=O)c1cnc(C(C)(C)O)s1` (single isomer, unassigned) [Example 171, (R) or (S)-N-(amino(2-(2-hydroxypropan-2-yl)thiazol-5-yl)(oxo)-λ^6-sulfaneylidene)-2-(4-(isochroman-7-yl)-2,6-diisopropylphenyl) acetamide], 200 to 1000 nM; in that of `CC(C)c1cc(-c2ccc3c(c2)COCC3)cc(C(C)C)c1CC(=O)N=S(N)(=O)c1cnc(C(C)(C)O)s1` (single isomer, unassigned) [Example 172, (S) or (R)-N-(amino(2-(2-hydroxypropan-2-yl)thiazol-5-yl)(oxo)-λ^6-sulfaneylidene)-2-(4-(isochroman-7-yl)-2,6-diisopropylphenyl) acetamide], 5000 to 30000 nM.
For `Cc1sc(S(N)(=O)=NC(=O)Cc2c(C(C)C)ccc(F)c2C(C)C)cc1C(C)(C)O` (single isomer, unassigned) [Example 173, (R) or (S)-N-(amino(4-(2-hydroxypropan-2-yl)-5-methylthiophen-2-yl)(oxo)-λ^6-sulfaneylidene)-2-(3-fluoro-2,6-diisopropylphenyl) acetamide] the value was 200 to 1000 nM.
For the compound `Cc1sc(S(N)(=O)=NC(=O)Cc2c(C(C)C)ccc(F)c2C(C)C)cc1C(C)(C)O` (single isomer, unassigned) [Example 174, (S) or (R)-N-(amino(4-(2-hydroxypropan-2-yl)-5-methylthiophen-2-yl)(oxo)-λ^6-sulfaneylidene)-2-(3-fluoro-2,6-diisopropylphenyl) acetamide], the IC50 lay within 5000 to 30000 nM.
For `CC(C)c1ccc(F)c(C(C)C)c1CC(=O)N=S(N)(=O)c1ccc(C(C)(C)O)s1` (single isomer, unassigned) [Example 175, (S) or (R)-N-(amino(5-(2-hydroxypropan-2-yl)thiophen-2-yl)(oxo)-λ^6-sulfaneylidene)-2-(3-fluoro-2,6-diisopropylphenyl) acetamide] the value was 1000 to 5000 nM; for `CC(C)c1ccc(F)c(C(C)C)c1CC(=O)N=S(N)(=O)c1ccc(C(C)(C)O)s1` (single isomer, unassigned) [Example 176, (R) or (S)-N-(amino(5-(2-hydroxypropan-2-yl)thiophen-2-yl)(oxo)-λ^6-sulfaneylidene)-2-(3-fluoro-2,6-diisopropylphenyl) acetamide], 200 to 1000 nM.
For `CC(C)c1cc(F)c(F)c(C(C)C)c1CC(=O)N=S(N)(=O)c1nc(C(C)(C)O)cs1` (single isomer, unassigned) [Example 177, (R) or (S)-N-(amino(4-(2-hydroxypropan-2-yl)thiazol-2-yl)(oxo)-λ^6-sulfaneylidene)-2-(3,4-difluoro-2,6-diisopropylphenyl) acetamide] the value was 40 to 200 nM.
In the case of `CC(C)c1cc(F)c(F)c(C(C)C)c1CC(=O)N=S(N)(=O)c1nc(C(C)(C)O)cs1` (single isomer, unassigned) [Example 178, (S) or (R)-N-(amino(4-(2-hydroxypropan-2-yl)thiazol-2-yl)(oxo)-λ^6-sulfaneylidene)-2-(3,4-difluoro-2,6-diisopropylphenyl) acetamide] it was 1000 to 5000 nM.
As for `CC(C)c1ccc(C#N)c(C(C)C)c1CC(=O)N=S(N)(=O)c1nc(C(C)(C)O)cs1` (single isomer, unassigned) [Example 179, (R) or (S)-N-(amino(4-(2-hydroxypropan-2-yl)thiazol-2-yl)(oxo)-λ^6-sulfaneylidene)-2-(3-cyano-2,6-diisopropylphenyl) acetamide], the IC50 was in the range of 200 to 1000 nM.
For `CC(C)c1ccc(C#N)c(C(C)C)c1CC(=O)N=S(N)(=O)c1nc(C(C)(C)O)cs1` (single isomer, unassigned) [Example 180, (S) or (R)-N-(amino(4-(2-hydroxypropan-2-yl)thiazol-2-yl)(oxo)-λ^6-sulfaneylidene)-2-(3-cyano-2,6-diisopropylphenyl) acetamide] the value was 5000 to 30000 nM; for `CC(C)c1ccc(F)c(C(C)C)c1CC(=O)N=S(N)(=O)c1nc(C(C)(C)O)cs1` (single isomer, unassigned) [Example 181, (R) or (S)-N-(amino(4-(2-hydroxypropan-2-yl)thiazol-2-yl)(oxo)-λ^6-sulfaneylidene)-2-(3-fluoro-2,6-diisopropylphenyl) acetamide], 40 to 200 nM; for `CC(C)c1ccc(F)c(C(C)C)c1CC(=O)N=S(N)(=O)c1nc(C(C)(C)O)cs1` (single isomer, unassigned) [Example 182, (S) or (R)-N-(amino(4-(2-hydroxypropan-2-yl)thiazol-2-yl)(oxo)-λ^6-sulfaneylidene)-2-(3-fluoro-2,6-diisopropylphenyl) acetamide], 5000 to 30000 nM.
Regarding `CC(C)c1cc2c(c(C(C)C)c1CC(=O)N=S(N)(=O)c1cnc(C(C)(C)O)s1)COC2` (single isomer, unassigned) [Example 183, (R) or (S)-N-(amino(2-(2-hydroxypropan-2-yl)thiazol-5-yl)(oxo)-λ^6-sulfaneylidene)-2-(4,6-diisopropyl-1,3-dihydro-isobenzofuran-5-yl)acetamide], the IC50 is 200 to 1000 nM.
